Test system: mouse
Test: Metrazol Test (tail vein infusion, seizure susceptibility)
Format: in vivo
Conditions: for Metrazol Dose Required for First Twitch: Dose at First Twitch: about 5 mg/ml infused through tail vein at about 0.375 ml/min
Procedure: A metrazol administration test can be used to screen animals for varying susceptibilities to seizures or similar events. For example, a 5 mg/ml solution of metrazol can be infused through the tail vein of a mouse at a rate of, e.g., approximately 0.375 ml/min. The infusion will cause all mice to experience seizures, followed by death. Those mice that enter the seizure stage the soonest are believed to be more prone to seizures.
To screen for phenotypes involving changes in seizure susceptibility, the Metrazol Test was be used. About 5 mg/ml of Metrazol was infused through the tail vein of the mouse at a constant rate of about 0.375 ml/min. The infusion caused all mice to experience seizures. Those mice who entered the seizure stage the quickest were thought to be more prone to seizures in general.
The Metrazol test can also be used to screen for phenotypes related to epilepsy. Seven to ten adult wild-type and homozygote males were used. A fresh solution of about 5 mg/ml pentylenetetrazole in approximately 0.9% NaCl was prepared prior to testing. Mice were weighed and loosely held in a restrainer. After exposure to a heat lamp to dilate the tail vein, mice were continuously infused with the pentylenetetrazole solution using a syringe pump set at a constant flow rate. The following stages were recorded: first twitch (sometimes accompanied by a squeak), beginning of the tonic/clonic seizure, tonic extension and survival time. The dose required for each phase was determined and the latency to each phase was determined between genotypes. Alterations in any stage may indicate an overall imbalance in excitatory or inhibitory neurotransmitter levels.

Compound: C1CCc2nnnn2CC1 [Metrazol, pentylenetetrazole]
- dose of metrazol to induce the first twitch response, homozygous mutant (−/−) compared to wild-type (+/+) control mice (age- and gender-matched mice): higher dose
- Metrazol Dose Required for First Twitch: Dose at First Twitch (homozygous mutant (−/−) CLCN4 male mice): 34.14 mg/kg
- Metrazol Dose Required for First Twitch: Dose at First Twitch (wild-type (+/+) male mice): 28.06 mg/kg

Source: US20060095979A1, “Transgenic mice containing CLCN4 chloride ion channel gene disruptions” (priority 2001, published 2006)
